The record followed here is ChEMBL document CHEMBL4052648, “Synthesis and evaluation of c-di-4'-thioAMP as an artificial ligand for c-di-AMP riboswitch” (Bioorg Med Chem, 2017).

In one data set the test system is YybT. Nature of the data set: Drug metabolism assessed as recombinant Bacillus subtilis YybT-mediated compound hydrolysis by measuring half life at 100 uM by reversed-phase HPLC method. It counts as ADME. The note with it: recombinant Bacillus subtilis YybT enzyme.
Data set [1] can be described thus: Drug metabolism assessed as recombinant Bacillus subtilis YybT-mediated ((2R,3S,4R,5R)-5-(6-amino-9H-purin-9-yl)-3-((((2R,3S,4R,5R)-5-(6-amino-9H-purin-9-yl)-3,4-dihydroxytetrahydrothiophen-2-yl)methoxy)(hydroxy)phosphoryloxy)-4-hydroxytetrahydrothiophen-2-yl)methyl dihydrogen phosphate formation at 100 uM by LRMS analysis. The data set is classed as ADME.
Data set [2] in a line: Binding affinity to Bacillus substilis 5'-32p-labelled 165 nucleotide RNA assessed as reduction in RNA cleavage measured within 40 hrs by PAGE analysis. Set-up: species or system Bacillus subtilis. Conditions: read-out: Kd(app).
The nature of data set [3]: Drug metabolism assessed as recombinant Bacillus subtilis YybT-mediated compound degradation by measuring retention time at 100 uM by reversed-phase HPLC analysis. The data set is classed as ADME.
A short description of data set [4]: Drug level treated with c-di-4'-thioAMP assessed as recombinant Bacillus subtilis YybT-mediated metabolite formation at 100 uM by LRMS analysis. The data set is classed as ADME.

What is called half-life is how long it takes for the measured level to halve.

With `Nc1ncnc2c1ncn2[C@@H]1S[C@@H]2COP(=O)(O)O[C@H]3[C@@H](O)[C@H](n4cnc5c(N)ncnc54)S[C@@H]3COP(=O)(O)O[C@H]2[C@H]1O`, the half-life at 100 µM with YybT was > 720 min. Besides, the Drug metabolism result in data set [1] was “Metabolite_Detected”. Moreover, the Kd in data set [2] worked out at 34.8 µM. Further, the Retention_time in data set [3] was found to be 12.3 min.

Regarding `Nc1ncnc2c1ncn2[C@@H]1S[C@H](COP(=O)(O)O[C@H]2[C@@H](O)[C@H](n3cnc4c(N)ncnc43)S[C@@H]2COP(=O)(O)O)[C@@H](O)[C@H]1O`, the Drug metabolism result in data set [4] is recorded as “Metabolite_Detected”.

Take `Nc1ncnc2c1ncn2[C@@H]1O[C@@H]2CO[P@@](=O)(O)O[C@H]3[C@@H](O)[C@H](n4cnc5c(N)ncnc54)O[C@@H]3CO[P@@](=O)(O)O[C@H]2[C@H]1O`: the half-life at 100 µM with YybT was 60 min. Moreover, in data set [2], the Kd is ≤ 0.0033 µM.
